Results: a melting point compilation (Tetko et al.; mined from patent text by program, amines drawn as free bases though some values may be those of a salt)

Row | SMILES | melting point
1 | Fc1ccc(-n2ccc3cc(OCCCCCCCBr)ccc32)cc1 | 63 to 65 °C
2 | CCC1=Nc2cc(CO)ccc2C(=O)C1 | 254 to 257 °C
3 | OCc1ccc(-c2cccc3cncn23)cc1 | 137 to 138 °C
4 | COc1ccc(Cn2nnc(-c3ccc(Cl)cc3Cl)c2N)cc1 | 134 to 137 °C
5 | O=S(CCl)c1ccc(-n2cnnn2)cc1 (stereo not given) | 147 to 149 °C
6 | CCC(=C(c1ccccc1)c1ccc(C=Cc2noc(C)n2)cc1)c1ccccc1 | 158 to 159 °C
7 | COC(=O)Cc1ccc(OCCCOc2cc3c(cc2O)CCO3)cc1 | 108 to 110 °C
8 | CC(C)N1CCCN=C1SC1=C(O)CC(c2ccccc2)OC1=O (stereo not given) | 103 to 105 °C
9 | CN1C(=O)CCc2cccc(N3CCN(CCCCOc4ccc5c(n4)NC(=O)CCC5)CC3)c21 | 184 to 185 °C
10 | CC1C[C@@H]2[C@H](O1)[C@@H](NC(=O)OC(C)(C)C)CN2Cc1ccccc1 (relative stereo) | 56 to 60 °C
11 | CC(=O)c1cc2c(C(C)=O)c(OCC(O)CNC(C)(C)C)ccc2o1 (stereo not given) | 122 °C
12 | CCN(c1nc2ccccc2c(=O)o1)c1ccccc1I | 129 to 130 °C
13 | CN(C)c1ncnc2c(O)cccc12 | 104 to 105 °C
14 | COc1cccc(N(C(=O)c2ccc(-c3cccc(C)c3)s2)C2CC2)c1 | 68 °C
15 | Cc1cc(C(=O)N2Cc3ccc(C(=O)C(Cl)(Cl)Cl)n3Cc3ccccc32)ccc1I | 163 °C
16 | CON=C(C)C(=NOC)C(C)=NOCc1ccccc1CON=CC(=O)OC | 105 °C
17 | COc1ccc(Cl)c(S(=O)(=O)NC(=O)c2cn3cc(C(F)(F)F)ncc3n2)c1 | 236 to 237 °C
18 | CCC(Oc1ccc(C(C)(C)CC)cc1C(C)(C)CC)C(=O)Nc1cc(OC(C)=O)c(C)c(Cl)c1O (stereo not given) | 188 to 190 °C
19 | Cc1c(C(=O)OCc2ccccc2)[nH]c2cc3c(sc4ccccc43)c(C)c12 | 203 to 204 °C
20 | COc1cccc2c1CC(NC(C)=O)CC2 (stereo not given) | 156 to 157 °C
21 | Cc1c(C)c2c(c(C)c1NC(=O)CC(C)(C)C)C(C1CCCCC1)C(C)(C)O2 (stereo not given) | 198 to 199 °C
22 | CN(Cc1ccccc1)c1sc(-c2ccncc2)c2c1C(=O)CC2 | 145 to 147 °C
23 | CCCc1c(OCC(O)COc2cccc([N+](=O)[O-])c2C#N)ccc(C(C)=O)c1O (stereo not given) | 117 to 119 °C
24 | CN(C)Cc1nnc(CN2C(=O)c3ccccc3C2=O)n1-c1ccc(Cl)cc1C(=O)c1ccccc1 | 206 to 208 °C
25 | CCC1(CC)C(=O)N(CCO)CC(C)(C)N1OC(C)(C)C#N | 80 to 82 °C

Row | SMILES | melting point
26 | CC(NC(=O)CCBr)c1ccccc1 (stereo not given) | 69 to 70 °C
27 | COc1ccccc1C1(O[Si](C)(C)C)C(=O)Nc2cc(C)c(Cl)cc21 (stereo not given) | 227 °C
28 | CCCS(=O)(=O)N[C@@H](CC(C)C)C(=O)N[C@@H](C(C)C)[C@@H](O)c1c(-c2ccccc2)c1=O | 195 to 196 °C
29 | Cn1c(C(=O)O)c(-c2ccc(F)cc2)c2ccn(C)c2c1=O | 155 to 157 °C
30 | O=C(NC1=NN(c2ccc(Cl)c(Cl)c2)CC1)C(F)(F)F | 181 to 183 °C
31 | CCCCc1nc(Cc2ccc(-c3ccccc3C(=O)OC)cc2)c2ccccc2n1 | 76 °C
32 | Nc1sc(-c2cccc(F)c2)c(CN(C2CCCCC2)C2CCCCC2)c1C(=O)c1ccc(Cl)cc1 | 205 to 207 °C
33 | Cc1c(CO)nc2c(NC(=O)C(C)(C)C)cccn12 | 186 to 187 °C
34 | COCCCNCCCc1ccc(-c2cnc(N)c(C(=O)Nc3cccnc3)n2)cc1 | 113 °C
35 | O=CN1CCC23CC(=O)CCC2C1Cc1cccc(O)c13 (stereo not given) | 260 to 262 °C
36 | CN1CC(OC(=O)c2ccccc2)N(N2CC=C(C(C)(C)C)O2)C1=O (stereo not given) | 165 to 166 °C
37 | CCN(Cc1csc(N)c1C(=O)c1ccc(Cl)cc1)c1ccccc1 | 130 to 132 °C
38 | COc1ccc(NN=C(Sc2ccc(OC)cc2)C(C)=O)cc1 | 126 to 128 °C
39 | O=c1n(Cc2ccc([N+](=O)[O-])cc2)c2ccccc2n1Cc1ccc(C(F)(F)F)cc1 | 134 to 137 °C
40 | C[C@H](NC(=O)COCCN1C(=O)c2ccccc2C1=O)C(=O)N[C@H](CCC(=O)OCc1ccccc1)C(N)=O | 205 to 206 °C
41 | CC(C)Nc1nc(-c2nc[nH]n2)cc(Cl)c1-c1c(F)cccc1Cl | 152 °C
42 | O=C(O)C=Cc1ccc(CCNS(=O)(=O)c2ccc(Cl)cc2)cc1 | 85 to 86 °C
43 | CC(=O)Nc1cccc(-c2nc3sccn3c2-c2ccnc(N[C@@H]3CCCN(S(=O)(=O)c4ccc(Cl)cc4)C3)n2)c1 | 169 to 174 °C
44 | CC1(C)Cc2ccccc2CC(C)(C)C1O | 66 to 68 °C
45 | COc1cc2c(OC)cccc2cc1-c1nc2cnccc2[nH]1 | 178 to 180 °C
46 | CCOC(=O)C(Cc1ccc(NCc2ccc3cc(OS(C)(=O)=O)ccc3c2)cc1)OC (stereo not given) | 94 to 96 °C
47 | COc1cc(OC)nc(C2(O)OC(=O)c3c2ccnc3C)n1 (stereo not given) | 203 to 204 °C
48 | CCC1(CCCCN2CCN(c3ccc(OC)cc3)CC2)C(=O)Nc2ccccc21 (stereo not given) | 109 to 110 °C
49 | CN1CCN(c2nc3sc4c(NCCc5ccccn5)ncnc4c3c3c2COC(C)(C)C3)CC1 | 227 to 229 °C
50 | Cc1cc(-c2cscn2)ccc1-c1cc(C(F)(F)F)nn1-c1ccc(S(C)(=O)=O)cc1 | 175 °C

Row | SMILES | melting point
51 | CCOC(=O)C1=C(C)NC(C)=C(C(=O)OCC)C1c1ccc(OC(C)(C)C(=O)OCC)cc1 | 215 °C
52 | CCOc1cc(CO)ncc1C | 99 to 101 °C
53 | COc1ccccc1N1CCN(CCc2ccc3[nH]c(=O)oc3c2)CC1 | 182 to 184 °C
54 | Nc1ccc2c(c1)C(=O)CC1(CCN(CCc3ccc4nonc4c3)CC1)O2 | 191 to 193 °C
55 | Cc1cc(C)nc(NC(=O)NS(=O)(=O)c2ccccc2C(=O)N(C)C)n1 | 166 to 168 °C
56 | Cc1c(NC(=O)c2ccc(-c3ccc(Cl)cc3)cc2)ccc2cc(CN3CCCC3)cnc12 | 227 to 229 °C
57 | Cc1ccc(S(=O)(=O)NCc2nc(C(C)C)c(Sc3cc(Cl)cc(Cl)c3)n2C)cc1 | 85 to 87 °C
58 | CN(Cc1sc2c(=O)c(C(=O)NCc3ccc(Cl)cc3)cn(C)c2c1CO)CC(O)c1ccc(C#N)s1 (stereo not given) | 188 to 190 °C
59 | O=c1ccc(-c2c(-c3ccccc3)nn3ccccc23)nn1[C@H]1CCNC1 | 144 to 146 °C
60 | C=C(C(=C)c1cc(C)sc1C)c1cc(C)sc1C | 43 to 44 °C
61 | CCOC(=O)c1c(Nc2ccc(F)cc2[N+](=O)[O-])nn(C)c1C | 174 °C
62 | CC(C)(C)OC(=O)[C@@H]1CS[C@H](c2cccc(O)c2)N1C(=O)CNC(=O)Nc1cccc(C(=O)O)c1 | 150 °C
63 | COc1ncnc(OC)c1C(C(C)C)N(C)C(=O)Cc1ccc(Cl)cc1 (stereo not given) | 107 to 109 °C
64 | CCOC(=O)CNc1c(C)cccc1[N+](=O)[O-] | 49 to 52 °C
65 | Cc1ccccc1C(=O)Nc1ccc(C(=O)N2Cc3ccc(Cl)n3Cc3ccccc32)cc1 | 185 to 187 °C
66 | Cc1nc(-c2cc([N+](=O)[O-])ccc2F)cs1 | 160 to 162 °C
67 | O=c1[nH]nc(CO)c2ccccc12 | 199 to 201 °C
68 | Fc1ccc(Cn2c(NC3CCN(CCNC(=S)N4CCCCC4)CC3)nc3ccccc32)cc1 | 176 °C
69 | CSC(=O)NCc1c[nH]c2ccccc12 | 110 to 111 °C
70 | COc1c(/C=C/C(=O)Nc2ccccc2)c(=O)c2ccc(Cl)cc2[nH]c1=O | 215 to 217 °C
71 | Cc1nnc(C=Cc2ccccc2O)s1 | 253 to 254 °C
72 | Cc1cccc2c1C(=O)N(C)Cc1c(-c3noc(C4CC4)n3)ncn1-2 | 200 °C
73 | COc1cc(-c2ccccc2)nc(-c2ccc(C)cc2)n1 | 99 to 100 °C
74 | c1ccc(N=C2N=C(c3ccccc3)N=C2Nc2ccccc2)cc1 | 201 °C
75 | COc1cccc(-c2ccnc3c(C(N)=O)ncn23)c1 | 249 to 252 °C

Row | SMILES | melting point
76 | O=C(CF)NOC(=O)C(F)(F)F | 56 to 59 °C
77 | COc1ccc(Cl)cc1C(=O)N(C)CCc1ccc(CCC(=O)O)cc1 | 152 to 153 °C
78 | CC(C)(C)c1cc(Nc2ccc(C=CC(=O)O)cc2)cc(C(C)(C)C)c1O | 199 to 200 °C
79 | CC(C)(C)OC(=O)N1CCN(CCOc2cc(-c3ccccc3)on2)CC1 | 110 to 111 °C
80 | COc1ccc(Cl)cc1CC1CNC(=O)CN(C(=O)Nc2cccc(NC(C)=O)c2)C1=O (stereo not given) | 130 to 131 °C
81 | COc1cc(OC)cc(-c2nc(CCOc3ccc(C[C@H](OC)C(=O)O)c4sccc34)c(C)o2)c1 | 194 to 195 °C
82 | Cc1c(C=O)cccc1C(=O)c1ccc(Cl)cc1 | 68 °C
83 | N#Cc1cc(F)ccc1O | 121 to 122 °C
84 | Nc1ccc(Cl)cc1C(=O)NCCCn1cncn1 | 116 to 118 °C
85 | OC1CSC(Oc2cc(-c3cncnc3)cnc2F)C(O)C1O (stereo not given) | 204 to 205 °C
86 | CS(=O)(=O)c1ccc(-c2nn3c4c(oc3c2-c2ccc(F)cc2)CCCC4)cc1 | 183 to 184 °C
87 | CCc1cccc2c1nc(-c1c(F)cccc1F)n2Cc1c(F)cccc1F | 165 to 166 °C
88 | CCOC(=O)C1SCCc2cc(OC)c(OC)cc21 (stereo not given) | 96 to 98 °C
89 | O=C(Nc1ccc([N+](=O)[O-])cc1Cl)c1ccc(C(=O)Nc2ccc([N+](=O)[O-])cc2Cl)cc1 | 339 °C
90 | O[C@H]1CC[C@H](Nc2nccc(-n3nnc4ccccc43)n2)CC1 | 225 to 228 °C
91 | Cn1c(CN2C(=O)C3(COc4cc5c(cc43)OCCO5)c3ccccc32)nc2ccccc21 (stereo not given) | > 240 °C
92 | Cc1nc2c(N)cc(S(=O)(=O)N(C)C)cc2n1C | 255 to 258 °C
93 | CCCCCCCCCCCCCCCCC(C)(C)C(=O)O | 50 to 53 °C
94 | O=C1CCc2c(ccc3ccc(O)cc23)O1 | 194 to 202 °C
95 | CSc1nccc(C)c1NC(=O)CSc1nc2ccccc2o1 | 146 to 148 °C
96 | CN1CCC(c2cccc3ccc(-c4cncnc4)cc23)CC1 | 122 to 123 °C
97 | CN(C)CC#Cc1cc(CN2CCOCC2)cc2c(=O)c(C(=O)NCc3ccc(Cl)cc3)cn(C)c12 | 154 to 157 °C
98 | ClC1(Cl)OC(Cl)(Cl)c2ccccc21 | 85 to 86 °C
99 | Cc1ccc(S(=O)(=O)OCCc2nc(-c3cccc(Br)c3)oc2C)cc1 | 107 to 109 °C
100 | OC(CS)(Cn1cncn1)c1ccc(F)cc1F (stereo not given) | 112 to 113 °C
